EC50 data for 27 molecules are collected here from BindingDB's records for doi:10.7270/Q2Q52N1X (Vanderbilt Screening Center for GPCRs, Ion Channels and …, 2009).

The target in the test is T1, Solute carrier family 12 member 5 (Homo sapiens, UniProt Q9H2X9).
T1 sequence (Q9H2X9 whole entry): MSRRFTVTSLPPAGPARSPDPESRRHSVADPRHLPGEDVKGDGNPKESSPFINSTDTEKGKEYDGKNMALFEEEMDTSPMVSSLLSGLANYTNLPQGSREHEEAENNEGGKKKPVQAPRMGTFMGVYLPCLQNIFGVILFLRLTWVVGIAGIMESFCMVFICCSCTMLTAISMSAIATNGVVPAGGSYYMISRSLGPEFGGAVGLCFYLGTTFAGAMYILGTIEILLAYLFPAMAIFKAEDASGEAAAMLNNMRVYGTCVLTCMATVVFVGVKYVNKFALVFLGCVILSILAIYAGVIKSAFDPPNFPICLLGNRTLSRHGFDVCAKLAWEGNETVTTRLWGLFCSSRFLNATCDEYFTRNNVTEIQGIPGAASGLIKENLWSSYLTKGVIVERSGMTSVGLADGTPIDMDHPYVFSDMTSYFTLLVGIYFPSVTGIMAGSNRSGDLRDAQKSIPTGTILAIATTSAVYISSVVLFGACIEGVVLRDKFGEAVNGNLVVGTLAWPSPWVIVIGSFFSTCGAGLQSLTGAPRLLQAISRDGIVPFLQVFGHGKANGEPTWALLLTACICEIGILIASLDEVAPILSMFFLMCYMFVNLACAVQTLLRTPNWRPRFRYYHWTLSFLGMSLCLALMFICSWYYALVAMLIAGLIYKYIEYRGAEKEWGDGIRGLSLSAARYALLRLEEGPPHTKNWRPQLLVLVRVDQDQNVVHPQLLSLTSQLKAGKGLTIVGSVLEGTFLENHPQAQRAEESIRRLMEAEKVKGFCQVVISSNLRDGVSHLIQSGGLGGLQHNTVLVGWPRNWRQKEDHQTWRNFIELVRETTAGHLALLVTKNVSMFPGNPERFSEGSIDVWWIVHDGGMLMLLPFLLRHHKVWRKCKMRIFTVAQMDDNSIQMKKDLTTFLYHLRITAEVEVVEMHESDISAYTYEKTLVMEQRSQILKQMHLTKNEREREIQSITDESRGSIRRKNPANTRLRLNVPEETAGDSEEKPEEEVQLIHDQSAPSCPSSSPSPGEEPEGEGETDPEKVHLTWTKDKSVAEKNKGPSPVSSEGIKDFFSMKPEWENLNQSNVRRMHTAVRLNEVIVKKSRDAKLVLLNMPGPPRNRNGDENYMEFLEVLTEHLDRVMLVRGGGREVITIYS
Kind of test: KCC2 modulator potency by thallium flux, dose response, cell-based, HEK293 KCC2, FluoZin-2 fluorescence (AID 1736).

The mark [1] stands for this setting: inactive by the depositor's call.

Usually EC50 stands for the concentration giving half of the maximal effect. Read a high EC50 as a need for much substance.

Each structure is given as a SMILES string.

Turning to `Cc1ccc(NC(=O)CCCSc2ccccc2)cc1S(=O)(=O)N1CCOCC1` [MLS000761060], the EC50 stood at 408 µM. Still for that read-out and setting: then `O=C(NNc1nc(-c2ccc(F)cc2)cs1)c1ccccc1` [MLS000763429], with 0.806 µM; and `COc1ccccc1NC(=S)NNC1=c2cc(Br)ccc2=NC1=O` [MLS000778253], with 0.363 µM. Same read-out and setting: then `O=C(NNc1nc(-c2ccccc2)cs1)c1cccs1` [MLS000858987], with 0.252 µM.

Regarding `CN1C(C(=O)NCc2ccccc2)CC2Cn3c(nc4cc(Cl)c(Cl)cc43)C21` (configuration not stated) [MLS000877509], under setting [1], the EC50 turned out to be 64 µM. `CCC(CC)NC(=O)CSc1nnc(-c2c[nH]c3ccccc23)o1` [MLS001017505]: the EC50 is 334 µM.

On to `COc1ccc(N(CC(=O)Nc2cccc(C)c2C)S(=O)(=O)c2c(C)n[nH]c2C)cc1` [N-(2,3-dimethylphenyl)-2-[(3,5-dimethyl-1H-pyrazol-4-yl)sulfonyl-(4-methoxyphenyl)amino]ethanamide], for which it took 15.7 µM to reach a half-maximal effect (EC50).

As to `Cc1csc(NC(=O)CSc2ccc(-c3ccccc3)nn2)n1` [N-(4-methyl-1,3-thiazol-2-yl)-2-(6-phenylpyridazin-3-yl)sulfanyl-ethanamide], the EC50 was found to be 0.493 µM. `CC(=NNC(=O)c1ccc(Cl)c(Cl)c1)c1ccc(Br)s1` [N-[1-(5-bromo-2-thiophenyl)ethylideneamino]-3,4-dichlorobenzamide]: the EC50 turned out to be 0.48 µM. The EC50 values of the last two molecules are within 1.5-fold of each other. The molecule `O=C(NCCc1c[nH]c2ccccc12)c1cc(S(=O)(=O)N2CCCCC2)ccc1N1CCOCC1` [N-[2-(1H-indol-3-yl)ethyl]-2-morpholin-4-yl-5-piperidin-1-ylsulfonylbenzamide] gave an EC50 of 20.1 µM. On the same count and under the same terms, then `CC(C)(C)NC(=O)C(c1ccncc1)N(Cc1ccco1)C(=O)c1ccc(-c2ccccc2)[nH]1` (configuration not stated) [N-[2-(tert-butylamino)-2-oxo-1-pyridin-4-ylethyl]-N-(furan-2-ylmethyl)-5-phenyl-1H-pyrrole-2-carboxamide], with 26.6 µM; and `CC(C)(C)NC(=O)C(c1cccs1)N(CC1CCCO1)C(=O)c1ccc(-c2ccccc2)[nH]1` (configuration not stated) [N-[2-(tert-butylamino)-2-oxo-1-thiophen-2-ylethyl]-N-(2-oxolanylmethyl)-5-phenyl-1H-pyrrole-2-carboxamide], with 1.93 µM.

Regarding `O=C(NN1C(=O)/C(=C/c2nc3ccccc3[nH]2)SC1=S)c1ccccc1Cl` [N-{5-[1-(1H-Benzoimidazol-2-yl)-meth-(Z)-ylidene]-4-oxo-2-thioxo-thiazolidin-3-yl}-2-chloro-benzamide], the EC50 stood at 0.153 µM.

Turning to `Cc1ccc2[nH]c(=O)c(CN(CCc3ccccc3)Cc3nnnn3CC3CCCO3)cc2c1` (configuration not stated) [SMR000003177], a half-maximal effect (EC50) was put at 244 µM.

Molecule `O=C(CSc1nnc(-c2c[nH]c3ccccc23)o1)N1CCCCC1` [SMR000003748] came in with an EC50 of 3.79 µM. Against the preceding molecule, the EC50 is about 64-fold lower.

The molecule `c1ccc(-c2nnc(Sc3ncnc4c3cnn4-c3ccccc3)[nH]2)cc1` [SMR000019566] showed an EC50 of 12.3 µM. On the same count and under the same terms, then `CCOC(=O)c1sc(Nc2nc3c(OC)cccc3s2)nc1C` [SMR000027213], with 155 µM.

With `COc1ccc(N(CC(=O)Nc2ccc(C)c(C)c2)S(=O)(=O)c2c(C)n[nH]c2C)cc1` [SMR000027403], a half-maximal response under setting [1] (EC50) required 35.1 µM. Still for that read-out and setting: under `CCOC(=O)c1c(C)[nH]c(C)c1C(=O)CSc1nc(N)cc(N)n1` [SMR000063952] stands 1.88 µM. With `CC(NNC(=O)c1ccc(Br)cc1)=C1C(=O)c2ccccc2C1=O` [SMR000116009], the EC50 came out at 1.56 µM. Same read-out and setting: under `O=C(CSc1nccc(=O)[nH]1)N1CCc2ccccc2C1` [SMR000124078] stands 9.12 µM. The same measure, in the same setting: then `CC(C)NC(=S)NNC1=c2cc(C(C)C)ccc2=NC1=O` [SMR000242097], with 145 µM. In the case of `CN1/C(=C\C(=S)NC(=O)c2cccc(Br)c2)C(C)(C)c2ccccc21` [SMR000254682], it took 3.68 µM to reach a half-maximal effect (EC50). Same read-out and setting: under `Cc1nc(SCc2ccc(F)cc2)c([N+](=O)[O-])[nH]1` [SMR000271028] stands 878 µM. Regarding `COc1ccc(CN(C(=O)c2ccc(-c3ccccc3)[nH]2)C(C(=O)NC(C)(C)C)c2ccncc2)cc1` (configuration not stated) [SMR000279859], the response under setting [1] was half-maximal at 34.4 µM (EC50). The same measure, in the same setting: then `CC1=NN(C(=O)c2ccc(Br)cc2)C(O)(C(F)(F)OC(F)(F)F)C1` (configuration not stated) [[5-[bis(fluoranyl)-(trifluoromethyloxy)methyl]-3-methyl-5-oxidanyl-4H-pyrazol-1-yl]-(4-bromophenyl)methanone], with 6.18 µM. In turn, `COC(=O)Cc1[nH]n(-c2nc3ccccc3s2)c(=O)c1C(C)=Nc1ccc(Cl)cc1` [methyl 2-[(4E)-1-(1,3-benzothiazol-2-yl)-4-[1-[(4-chlorophenyl)amino]ethylidene]-5-oxidanylidene-pyrazol-3-yl]ethanoate] registered a 50% effective concentration (EC50) of 77.3 µM.
